From ChEMBL document CHEMBL5653631, “A Potent and Selective ULK1 Inhibitor Suppresses Autophagy and Sensitizes Cancer Cells to Nutrient Stress” (iScience, 2018) come the findings set out here.

The test system of assay [1] is U2OS. Kind of assay: Inhibition of autophagy in human U2OS cells assessed as BafA1-induced LC3B-II accumulation upto 5 uM preincubated with compound for 3 hrs followed by BafA1 induction and measured after 1 hr by immunoblotting analysis. Type of assay: functional, cell-based. The following applies: time 4.0 hrs. For orientation: A western blot detects proteins with antibodies after separation by electrophoresis.

In assay [2] the target is Serine/threonine-protein kinase Nek7 (Homo sapiens) (UniProt Q8TDX7). Kind of assay: Inhibition of human recombinant NEK7 at 40 nM in presence of ATP by radiometric assay relative to control.
Assay [3] addresses T1, Ephrin type-B receptor 4 (Homo sapiens) (UniProt P54760).
T1 sequence (whole entry): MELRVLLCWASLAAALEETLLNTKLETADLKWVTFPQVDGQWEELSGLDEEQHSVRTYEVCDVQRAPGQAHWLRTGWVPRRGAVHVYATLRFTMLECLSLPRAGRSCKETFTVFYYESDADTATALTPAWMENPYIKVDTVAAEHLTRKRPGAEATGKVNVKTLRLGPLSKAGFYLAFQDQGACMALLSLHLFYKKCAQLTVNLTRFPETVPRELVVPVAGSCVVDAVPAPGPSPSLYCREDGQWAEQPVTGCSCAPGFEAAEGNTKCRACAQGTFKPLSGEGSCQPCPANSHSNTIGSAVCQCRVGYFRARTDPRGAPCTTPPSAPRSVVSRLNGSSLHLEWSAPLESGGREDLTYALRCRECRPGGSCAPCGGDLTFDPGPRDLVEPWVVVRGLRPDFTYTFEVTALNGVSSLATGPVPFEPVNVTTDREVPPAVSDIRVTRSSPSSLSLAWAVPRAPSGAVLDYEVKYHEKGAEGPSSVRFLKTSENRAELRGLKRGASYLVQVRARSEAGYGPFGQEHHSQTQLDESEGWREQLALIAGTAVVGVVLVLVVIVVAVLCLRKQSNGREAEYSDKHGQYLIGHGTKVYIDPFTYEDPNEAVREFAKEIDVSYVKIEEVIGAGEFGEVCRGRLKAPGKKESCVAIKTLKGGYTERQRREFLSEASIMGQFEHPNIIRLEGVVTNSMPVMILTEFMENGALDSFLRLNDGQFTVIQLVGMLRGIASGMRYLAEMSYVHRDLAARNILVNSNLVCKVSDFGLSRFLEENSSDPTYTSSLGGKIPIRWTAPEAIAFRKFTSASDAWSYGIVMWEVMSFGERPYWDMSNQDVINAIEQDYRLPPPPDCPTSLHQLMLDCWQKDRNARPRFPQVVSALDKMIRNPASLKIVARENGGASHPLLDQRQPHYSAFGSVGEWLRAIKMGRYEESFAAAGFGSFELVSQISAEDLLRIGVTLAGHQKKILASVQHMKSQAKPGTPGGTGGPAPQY
Kind of assay: Inhibition of human recombinant EphB4 at 40 nM related to control ULK1.

Assay [4] addresses Interleukin-1 receptor-associated kinase 1 (Homo sapiens) (UniProt P51617). The assay can be described thus: Inhibition of human recombinant IRAK1 at 500 nM in presence of ATP by radiometric assay relative to control.
Assay [5] concerns the target Receptor-interacting serine/threonine-protein kinase 2 (Homo sapiens) (UniProt O43353). The assay can be described thus: Inhibition of human recombinant RIPK2 at 500 nM related to control ULK1.
Assay [6] addresses Tyrosine-protein kinase Fyn (Homo sapiens) (UniProt P06241). Kind of assay: Inhibition of human recombinant FYN at 15 nM in presence of ATP by radiometric assay relative to control.
Assay [7] has as its target T2, Serine/threonine-protein kinase Sgk1 (Homo sapiens) (UniProt O00141).
T2 sequence (whole entry): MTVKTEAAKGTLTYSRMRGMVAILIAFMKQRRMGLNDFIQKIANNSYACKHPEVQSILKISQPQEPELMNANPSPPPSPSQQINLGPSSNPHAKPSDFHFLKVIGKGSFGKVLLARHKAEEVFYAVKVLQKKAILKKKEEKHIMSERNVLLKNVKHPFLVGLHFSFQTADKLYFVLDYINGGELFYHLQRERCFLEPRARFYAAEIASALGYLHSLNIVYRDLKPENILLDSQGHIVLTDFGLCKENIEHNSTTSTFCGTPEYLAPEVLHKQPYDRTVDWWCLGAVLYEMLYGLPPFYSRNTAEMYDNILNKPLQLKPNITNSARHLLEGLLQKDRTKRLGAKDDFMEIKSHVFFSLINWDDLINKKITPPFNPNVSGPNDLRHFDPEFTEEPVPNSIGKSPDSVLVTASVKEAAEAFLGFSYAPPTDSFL
The assay can be described thus: Inhibition of human recombinant SGK1 at 15 nM in presence of ATP by radiometric assay relative to control.

Assay [8] concerns the target RAC-beta serine/threonine-protein kinase (Homo sapiens) (UniProt P31751). The assay can be described thus: Inhibition of human recombinant AKT2 at 15 nM related to control ULK1.
Assay [9] deals with T3, Ephrin type-A receptor 1 (Homo sapiens) (UniProt P21709).
T3 sequence (whole entry): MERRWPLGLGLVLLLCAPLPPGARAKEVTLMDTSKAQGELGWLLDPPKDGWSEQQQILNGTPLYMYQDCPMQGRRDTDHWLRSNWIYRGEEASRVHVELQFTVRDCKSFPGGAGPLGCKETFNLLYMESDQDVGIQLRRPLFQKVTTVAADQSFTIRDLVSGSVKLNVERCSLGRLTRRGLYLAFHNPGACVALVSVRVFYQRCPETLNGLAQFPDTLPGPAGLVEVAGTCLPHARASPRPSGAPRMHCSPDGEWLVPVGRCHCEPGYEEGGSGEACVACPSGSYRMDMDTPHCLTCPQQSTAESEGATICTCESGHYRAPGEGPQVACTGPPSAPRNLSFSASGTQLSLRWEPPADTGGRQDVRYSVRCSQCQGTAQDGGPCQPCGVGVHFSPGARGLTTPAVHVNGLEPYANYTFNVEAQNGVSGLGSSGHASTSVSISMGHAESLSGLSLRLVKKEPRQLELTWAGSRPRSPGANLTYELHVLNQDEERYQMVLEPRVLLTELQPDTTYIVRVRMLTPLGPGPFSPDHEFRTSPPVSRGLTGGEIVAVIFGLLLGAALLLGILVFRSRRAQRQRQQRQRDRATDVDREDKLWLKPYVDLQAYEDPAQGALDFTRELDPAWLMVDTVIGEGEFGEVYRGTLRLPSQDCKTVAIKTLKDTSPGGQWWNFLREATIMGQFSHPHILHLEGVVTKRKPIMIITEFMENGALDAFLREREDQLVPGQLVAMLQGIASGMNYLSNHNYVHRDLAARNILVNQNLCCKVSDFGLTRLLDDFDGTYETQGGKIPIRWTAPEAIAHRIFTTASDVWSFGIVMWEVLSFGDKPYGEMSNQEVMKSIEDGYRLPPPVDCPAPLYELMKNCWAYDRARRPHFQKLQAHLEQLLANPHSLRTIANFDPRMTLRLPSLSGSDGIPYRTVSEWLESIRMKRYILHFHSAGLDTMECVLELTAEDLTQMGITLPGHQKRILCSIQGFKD
Kind of assay: Inhibition of human recombinant EphA1 at 15 nM related to control ULK1.

SMILES strings stand for the structures. Active and inactive are the calls of the source. No cut-off for these calls is given here.

Chain of RAC-beta serine/threonine-protein kinase (Homo sapiens) (P31751 whole entry): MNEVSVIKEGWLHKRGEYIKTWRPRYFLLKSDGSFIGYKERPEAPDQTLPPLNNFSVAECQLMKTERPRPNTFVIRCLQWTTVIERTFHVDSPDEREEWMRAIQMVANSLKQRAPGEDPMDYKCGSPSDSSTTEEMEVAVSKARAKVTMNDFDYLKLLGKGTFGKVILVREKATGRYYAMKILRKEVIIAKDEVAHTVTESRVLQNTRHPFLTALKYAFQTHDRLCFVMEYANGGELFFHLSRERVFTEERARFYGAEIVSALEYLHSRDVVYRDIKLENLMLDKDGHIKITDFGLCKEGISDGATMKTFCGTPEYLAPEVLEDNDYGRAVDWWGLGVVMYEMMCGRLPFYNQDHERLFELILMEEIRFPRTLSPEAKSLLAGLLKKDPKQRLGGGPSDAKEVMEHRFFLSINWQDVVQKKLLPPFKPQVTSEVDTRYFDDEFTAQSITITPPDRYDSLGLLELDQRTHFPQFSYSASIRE
Chain of Serine/threonine-protein kinase Nek7 (Homo sapiens) (Q8TDX7 whole entry, looked up): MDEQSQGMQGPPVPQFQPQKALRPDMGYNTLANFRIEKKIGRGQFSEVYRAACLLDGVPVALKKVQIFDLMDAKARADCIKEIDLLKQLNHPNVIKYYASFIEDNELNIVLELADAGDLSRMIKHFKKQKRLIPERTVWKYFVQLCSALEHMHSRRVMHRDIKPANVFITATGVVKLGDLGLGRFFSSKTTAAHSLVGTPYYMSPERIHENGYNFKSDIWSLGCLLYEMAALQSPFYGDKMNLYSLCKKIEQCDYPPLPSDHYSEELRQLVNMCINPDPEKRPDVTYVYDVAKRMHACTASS
Chain of Interleukin-1 receptor-associated kinase 1 (Homo sapiens) (P51617 whole entry, looked up): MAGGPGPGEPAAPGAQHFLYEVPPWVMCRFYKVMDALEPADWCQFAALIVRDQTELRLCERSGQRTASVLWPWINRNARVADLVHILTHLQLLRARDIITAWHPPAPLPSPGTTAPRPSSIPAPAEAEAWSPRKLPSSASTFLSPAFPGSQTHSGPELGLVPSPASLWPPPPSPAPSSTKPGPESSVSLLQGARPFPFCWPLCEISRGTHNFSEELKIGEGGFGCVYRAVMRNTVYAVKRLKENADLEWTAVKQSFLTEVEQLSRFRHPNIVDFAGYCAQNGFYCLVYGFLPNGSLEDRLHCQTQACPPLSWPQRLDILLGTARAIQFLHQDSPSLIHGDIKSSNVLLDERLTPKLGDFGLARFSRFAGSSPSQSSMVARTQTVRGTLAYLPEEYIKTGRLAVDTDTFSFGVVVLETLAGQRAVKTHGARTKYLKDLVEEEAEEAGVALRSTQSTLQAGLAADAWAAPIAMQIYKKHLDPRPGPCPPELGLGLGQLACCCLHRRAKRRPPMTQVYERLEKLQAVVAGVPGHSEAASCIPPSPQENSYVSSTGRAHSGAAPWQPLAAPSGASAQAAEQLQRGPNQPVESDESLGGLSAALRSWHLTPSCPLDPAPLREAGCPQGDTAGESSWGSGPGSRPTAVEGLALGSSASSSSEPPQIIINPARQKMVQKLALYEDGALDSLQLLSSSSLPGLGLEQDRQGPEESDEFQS
Chain of Tyrosine-protein kinase Fyn (Homo sapiens) (P06241 2-537 limits assumed): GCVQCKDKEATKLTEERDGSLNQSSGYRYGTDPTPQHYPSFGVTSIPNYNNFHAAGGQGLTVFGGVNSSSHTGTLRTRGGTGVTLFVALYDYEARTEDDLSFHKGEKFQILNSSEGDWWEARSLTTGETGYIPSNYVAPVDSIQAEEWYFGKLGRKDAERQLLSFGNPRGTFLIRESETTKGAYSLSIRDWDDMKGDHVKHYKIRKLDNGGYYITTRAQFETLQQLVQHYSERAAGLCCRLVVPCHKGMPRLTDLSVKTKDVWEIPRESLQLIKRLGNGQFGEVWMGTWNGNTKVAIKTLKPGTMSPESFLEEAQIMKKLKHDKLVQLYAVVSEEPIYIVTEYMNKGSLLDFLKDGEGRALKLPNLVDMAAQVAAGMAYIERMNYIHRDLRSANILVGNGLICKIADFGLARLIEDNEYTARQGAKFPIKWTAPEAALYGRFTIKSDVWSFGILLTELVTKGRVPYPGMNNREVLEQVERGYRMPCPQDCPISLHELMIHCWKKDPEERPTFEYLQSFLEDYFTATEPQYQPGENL
Chain of Receptor-interacting serine/threonine-protein kinase 2 (Homo sapiens) (O43353 whole entry): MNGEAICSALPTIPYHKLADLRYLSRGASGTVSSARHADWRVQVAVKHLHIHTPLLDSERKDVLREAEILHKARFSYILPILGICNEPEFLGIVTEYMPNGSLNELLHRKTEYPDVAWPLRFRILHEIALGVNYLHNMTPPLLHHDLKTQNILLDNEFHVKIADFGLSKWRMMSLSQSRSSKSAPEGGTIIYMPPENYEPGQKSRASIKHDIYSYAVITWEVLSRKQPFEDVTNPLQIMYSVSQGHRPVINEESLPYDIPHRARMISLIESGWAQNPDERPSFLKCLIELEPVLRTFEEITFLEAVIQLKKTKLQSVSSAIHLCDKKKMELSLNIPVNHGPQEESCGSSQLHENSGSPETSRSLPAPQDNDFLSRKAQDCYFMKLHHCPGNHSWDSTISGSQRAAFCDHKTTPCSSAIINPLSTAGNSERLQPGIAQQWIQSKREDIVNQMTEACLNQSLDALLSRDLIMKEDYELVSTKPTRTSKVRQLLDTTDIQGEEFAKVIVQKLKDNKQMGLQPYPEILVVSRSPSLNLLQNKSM

On to `O=C(N[C@@H](C1CC1)C(F)(F)F)c1cc(-c2cnn3cc(-c4ccc(F)cc4)cnc23)cs1`, for which the inhibition (commonly the percentage by which the read-out fell short of the control) in assay [1] is “Active”. Also, the inhibition in [2] was determined as 0%. Besides, the fold change (FC) in [3] worked out at 0.

Turning to `CNC(=O)c1ccccc1Oc1nc(Nc2cc(OC)c(OC)c(OC)c2)ncc1Br`, the inhibition in assay [4] was found to be 15%. Also, the fold change (FC) in assay [5] was 0.

For `CC(C)[C@H](NC(=O)c1cc(-c2cnn3cc(-c4ccc(OCCN5CCCCC5)cc4)cnc23)cs1)C(F)(F)F`, the inhibition came to 16% in [6] and 4% in [7]. Also, the fold change (FC) in assay [8] and in assay [9] was 0 in each case.
